Test results as given in US20070128217A1 (priority 2003, published 2007).

How the values were obtained:
[1] = test system: antibodies in sera from SARS patients (sera 1a, 1b, 2, 6, 37, 62, London, SARS-yellow, SARS-green); type: binding, human; parameters: Binding of serum 6 to linear peptides of protein X1 of SARS-CoV Urbani / Binding of serum 37 to linear peptides of protein X1 of SARS-CoV Urbani / Binding of serum 6 to looped/cyclic peptide (PEPSCAN-ELISA) / Binding of serum 37 to looped/cyclic peptide (PEPSCAN-ELISA) / Binding of serum 37 to looped/cyclic peptides of protein X1 of SARS-CoV Urbani / Binding of serum 6 to linear peptides of protein X2 / Binding of serum 37 to linear peptides of protein X2 / Binding of serum 37 to looped/cyclic peptides of protein X2 of SARS-CoV Urbani / Binding of serum 6 to linear peptides of protein M of SARS-CoV Urbani / Binding of serum 37 to linear peptides of protein M of SARS-CoV Urbani / Binding of serum 6 to looped/cyclic peptides of protein M of SARS-CoV Urbani / Binding of serum 37 to looped/cyclic peptides of protein M of SARS-CoV Urbani / Binding of serum 6 to linear peptides of protein X3 of SARS-CoV Urbani / Binding of serum 37 to linear peptides of protein X3 of SARS-CoV Urbani / Binding of serum 37 to looped/cyclic peptides of protein X3 of SARS-CoV Urbani / Binding of serum 6 to linear peptides of protein X4 of SARS-CoV Urbani / Binding of serum 37 to linear peptides of protein X4 of SARS-CoV Urbani / Binding of serum 37 to looped/cyclic peptides of protein X4 of SARS-CoV Urbani / Binding of serum 6 to linear peptides of protein X5 of SARS-CoV Urbani / Binding of serum 37 to linear peptides of protein X5 of SARS-CoV Urbani / Binding of serum 37 to looped/cyclic peptides of protein X5 of SARS-CoV Urbani / Binding of serum 6 to linear peptides of protein N of SARS-CoV Urbani / Binding of serum 37 to linear peptides of protein N of SARS-CoV Urbani / Binding of serum 6 to linear peptide (PEPSCAN-ELISA) / Binding of serum 1a to looped/cyclic peptides of protein N of SARS-CoV Urbani / Binding of serum 1b to looped/cyclic peptides of protein N of SARS-CoV Urbani / Binding of serum 2 to looped/cyclic peptides of protein N of SARS-CoV Urbani / Binding of serum 6 to looped/cyclic peptides of protein N of SARS-CoV Urbani / Binding of serum 37 to looped/cyclic peptides of protein N of SARS-CoV Urbani / Binding of serum 62 to looped/cyclic peptides of protein N of SARS-CoV Urbani / Binding of serum London to looped/cyclic peptides of protein N of SARS-CoV Urbani / Binding of serum SARS-green to looped/cyclic peptides of protein N of SARS-CoV Urbani: unit not given here
[2] = test system: recombinant human anti-SARS-CoV antibody 03-018; type: binding; parameters: Binding of antibody 03-018 to linear peptides of the N protein of SARS-CoV Urbani / Binding of antibody 03-018 to looped/cyclic peptides of the N protein of SARS-CoV Urbani: unit not given here
[3] = test system: control sera (pooled serum of ten healthy LUMC hospital workers; commercial negative donor pooled serum from the Dutch bloodbank); type: binding, human; parameters: Binding of Control serum LUMC to linear peptides / Binding of Control serum Blood-bank to linear peptides / Binding of Control serum LUMC to looped peptides / Binding of Control Serum Blood-Bank to Looped peptides / Binding of Control serum LUMC to linear peptides of the protein M of SARS-CoV Urbani / Binding of Control serum Blood-bank to linear peptides of the protein M of SARS-CoV Urbani / Binding of Control serum LUMC to looped peptides of the protein M of SARS-CoV Urbani / Binding of Control Serum Blood-Bank to Looped peptides of the protein M of SARS-CoV Urbani: unit not given here
[4] = test system: rabbit serum obtained by immunizing a rabbit with the SARS-CoV strain Frankfurt 1; type: binding; parameters: Binding of a rabbit serum to linear peptides / Binding of a rabbit serum to looped peptides / Rabbit serum linear peptides / Rabbit serum looped peptides / Binding of a rabbit serum to linear peptides of protein N of SARS-CoV Urbani (Rabbit serum linear peptides) / Binding of a rabbit serum to looped/cyclic peptides of protein N of SARS-CoV Urbani (Rabbit serum looped peptides): unit not given here

Row | Sequence | Binding of serum 1a to linear peptides of protein N of SARS-CoV Urbani [1] | Binding of serum 1a to looped/cyclic peptides of protein N of SARS-CoV Urbani [1] | Binding of serum 1b to linear peptides of protein N of SARS-CoV Urbani [1] | Binding of serum 1b to looped/cyclic peptides of protein N of SARS-CoV Urbani [1] | Binding of serum 2 to linear peptides of protein N of SARS-CoV Urbani [1] | Binding of serum 2 to looped/cyclic peptides of protein N of SARS-CoV Urbani [1] | Binding of serum 6 to linear peptides of protein N of SARS-CoV Urbani [1] | Binding of serum 6 to looped/cyclic peptides of protein N of SARS-CoV Urbani [1] | Binding of serum 37 to linear peptides of protein N of SARS-CoV Urbani [1] | Binding of serum 37 to looped/cyclic peptides of protein N of SARS-CoV Urbani [1] | Binding of serum 62 to linear peptides of protein N of SARS-CoV Urbani [1] | Binding of serum 62 to looped/cyclic peptides of protein N of SARS-CoV Urbani [1] | Binding of serum London to linear peptides of protein N of SARS-CoV Urbani [1] | Binding of serum London to looped/cyclic peptides of protein N of SARS-CoV Urbani [1] | Binding of serum SARS-green to linear peptides of protein N of SARS-CoV Urbani [1] | Binding of serum SARS-green to looped/cyclic peptides of protein N of SARS-CoV Urbani [1] | Binding of serum SARS-yellow to linear peptides of protein N of SARS-CoV Urbani [1] | Binding of serum SARS-yellow to looped/cyclic peptides of protein N of SARS-CoV Urbani [1] | Binding of antibody 03-018 to linear peptides of the N protein of SARS-CoV Urbani [2] | Binding of antibody 03-018 to looped/cyclic peptides of the N protein of SARS-CoV Urbani [2] | other results
1 | KKKTDEAQPLPQRQK | 0.2 | 0.2 | 0.1 | 0.1 | 0.2 | 0.1 | 0.7 | 0.0 | 0.9 | 0.3 | 0.6 | 0.2 | 1.1 | 0.3 | 0.4 | 0.0 | 1.0 | 0.0 | 0.1 | 0.2 | Control Serum Blood-Bank Looped peptides [3]: 0.4; Control serum Blood-bank linear peptides [3]: 0.9; Control serum LUMC linear peptides [3]: 0.8; Control serum LUMC looped peptides [3]: 0.3; Binding of a rabbit serum to linear peptides of protein N of SARS-CoV Urbani (Rabbit serum linear peptides) [4]: 0.2; Binding of a rabbit serum to looped/cyclic peptides of protein N of SARS-CoV Urbani (Rabbit serum looped peptides) [4]: 0.1
2 | YYRRATRRVRGGDGK | 0.3 | 0.2 | 0.1 | 0.1 | 0.3 | 0.2 | 0.3 | 0.1 | 0.7 | 0.4 | 0.6 | 0.2 | 0.5 | 0.2 | 0.3 | 0.0 | 0.5 | 0.1 | 0.1 | 0.2 | Binding of Control Serum Blood-Bank to Looped peptides [3]: 0.3; Binding of Control serum Blood-bank to linear peptides [3]: 0.6; Binding of Control serum LUMC to linear peptides [3]: 0.6; Binding of Control serum LUMC to looped peptides [3]: 0.2; Binding of a rabbit serum to linear peptides of protein N of SARS-CoV Urbani (Rabbit serum linear peptides) [4]: 0.2; Binding of a rabbit serum to looped/cyclic peptides of protein N of SARS-CoV Urbani (Rabbit serum looped peptides) [4]: 0.0
